In patent US11952593B2, “Detection and treatment of daughter number variations in cancer cells” (PharmacoGenetics Limited, priority 2020, dated 2024):

Legend:
HepG2 cells [1] = assay: Cell cytotoxicity assay (crystal violet), HepG2; assay type: cell-based, human; settings: HepG2, 24 hours, 50 μM wogonin, 20 μM 5-FU, absorbance 600 nm
Protocol: Cell cytotoxicity assay was carried out on 96 well plate, where cells were treated with neutral, acidic, alkaline pH and anti-cancer drug wogonin or 5-FU. After 24 hours, crystal violet (8% in methanol), and dye absorbed by live cells was extracted with sodium citrate (0.1 M) in 50% ethanol. Absorbance was read at 600 nm.
HepG2, HeLa and A549 cells were grown to a monolayer density of 1×10^3 per well in neutral growth medium overnight. There upon the cells were changed to various treatment media at neutral, acidic and alkaline pHs, neutral medium containing 50 μM wogonin and neutral medium containing 20 μM 5-FU, for 24 hours at 37° C. in humidified 5% CO2 atmosphere. Following the treatment, floating cells were removed, and the attached cells were stained with crystal violet (8% in methanol); the dye absorbed by the live cells was extracted with sodium citrate (0.1 M) in 50% ethanol [1 25], and quantitated by absorbance at 600 nm.

HepG2 cells [2] = assay: Daughter-cell subgroups P1 through P8 in mitoses with DNV, HepG2; assay type: cell-based, human; settings: HepG2, 24 hours, wogonin 50 μM, 5-FU 20 μM
Description: “Daughter Number Variation” is a process that occurs during mitosis, where more than two daughter cells are produced per mitotic division. It is a two-stage process, wherein cell divisions of mono-nucleate, bi-nucleate, tri-nucleate and tetra-nucleate mother cells at Stage 1 produce subgroups of single mono-nucleate cells (herein referred to as P1), and subgroups containing one bi-nucleate cell and two mono-nucleate cells (herein referred to as P2). Stage 1 is followed by Stage 2, during which time some of the daughter cells from Stage 1 fuse to produce multi-nucleate cell subgroups, where the different subgroups differ with respect to the number of constituent cells and their nucleate status (herein referred to as P3 through P8). All the subgroups from a single DNV mitosis stay close to one another to form a distinct cluster when the cell culture is not overly dense with cells.
P1 subgroup cells are daughter mono-nucleate cells resulting from mitoses with DNV that have not undergone any post-mitotic cell fusion. P2 subgroup daughter cells are clusters of one bi-nucleate cell and two mono-nucleate cells, which also have not undergone any post-mitotic cell fusion during DNV, whereas each of the multi-nucleated subgroups contains at least one cell that is generated from post-mitotic fusions between the Stage 1 cells. P3 through P8 are daughter cell subgroups, which result from cell fusions during DNV, and wherein each subgroup includes at least one multinucleate cell.
By way of example and not of limitation, there is at least one multinucleate cell with two nuclei in P3 and P5, one multinucleate cell with three nuclei in P4 and P6, one multinucleate cell with four nuclei in P7, and one multinucleate cell with five nuclei in P8, sharing the same cytoplasm. More specifically, P3 cell subgroups are clusters of one multinucleate cell with two nuclei and one mononucleate cell, P4 cell subgroups are one multinucleate cell with three nuclei, P5 cell subgroups are clusters of either two multinucleate cells with two nuclei or one multinucleate cell with two nuclei and one binucleate cell, P6 cell subgroups are clusters of one multinucleate cell with three nuclei and one mononucleate cell, P7 cell subgroups are one multinucleate cell with four nuclei, and P8 cell subgroups are one multinucleate cell with five nuclei. P1 through P8 cell subgroups are depicted in detail in FIG. 2.
The counts of P1 and P2 subgroups of cancer cells are then used to obtain their proportions based on the total number of cell subgroups P1 through P8 that resulted from mitotic DNVs during the predetermined period of time. The proportions are typically expressed as percentages. The proportion of P1 subgroup of cells is calculated as (number of P1 subgroups)+(total number of daughter cell subgroups)×100%, and the proportion of (P1 and P2) subgroup is calculated as (number of P1 subgroups+number of P2 subgroups)+(total number of daughter cell subgroups)×100%. This can also be expressed as (number of P1 subgroups)+(total number of P1 through P8 subgroups)×100%, or (number of P1 subgroups+number of P2 subgroups)+(total number of P1 through P8 subgroups)×100%, respectively.
To investigate DNVs, the human HepG2 hepatocellular carcinoma, HeLa cervical adenocarcinoma, and A549 lung adenocarcinoma cell lines, as well as the non-cancerous RPE1 line of hTRET-immortalized retina epithelial cells, were obtained from the American Type Culture Collection (ATCC, Manassas, Va., USA) and cultivated in Dulbecco's Modified Eagle Medium (DMEM) supplemented with 10% fetal bovine serum (Gemini Bio-Products, Sacramento. Calif.) under a humidified atmosphere of 5% C02 at 37° C. […]

Row | SMILES | Cell death as compared to neutral pH (HepG2 cells [1]) | Mitoses with DNV, number (HepG2 cells [2]) | P1 + P2 subgroups, number (HepG2 cells [2]) | P1 subgroups, number (HepG2 cells [2]) | P2 subgroups, % of all P1 through P8 subgroups (HepG2 cells [2]) | P2 subgroups, number (HepG2 cells [2]) | P3 subgroups, % of all P1 through P8 subgroups (HepG2 cells [2]) | P3 subgroups, number (HepG2 cells [2]) | P4 subgroups, number (HepG2 cells [2]) | P5 subgroups, % of all P1 through P8 subgroups (HepG2 cells [2]) | P5 subgroups, number (HepG2 cells [2]) | P6 subgroups, % of all P1 through P8 subgroups (HepG2 cells [2]) | P6 subgroups, number (HepG2 cells [2]) | P7 subgroups, number (HepG2 cells [2]) | P8 subgroups, number (HepG2 cells [2]) | also measured
1 | COc1c(O)cc(O)c2c(=O)cc(-c3ccccc3)oc12 [Wogonin, wogonin] | increased cell death | 63 | 38 | 27 | (17.4) % | 11 | (12.7) % | 8 | 9 | (4.7) % | 3 | (4.7) % | 3 | 2 | 0 | P1 + P2 subgroups, % of all P1 through P8 subgroups (HepG2 cells [2]): (60.3) %; P1 subgroups, % of all P1 through P8 subgroups (HepG2 cells [2]): (42.8) %; P4 subgroups, % of all P1 through P8 subgroups (HepG2 cells [2]): (14.2) %; P7 subgroups, % of all P1 through P8 subgroups (HepG2 cells [2]): (3.1) %; P1 + P2 subgroups, % of all P1 through P8 subgroups (HepG2 cells [2]; listed as wogonin): 60.3%; P1 subgroups, % of all P1 through P8 subgroups (HepG2 cells [2]; listed as wogonin): 42.8%
2 | O=c1[nH]cc(F)c(=O)[nH]1 [5-FU, 5-flurouracil] | increased cell death | 17 | 6 | 3 | (17.6) % | 3 | (35.2) % | 6 | 0 | (11.7) % | 2 | (17.6) % | 3 | 0 | 0 | –
